Measurements taken from article PMC10179972, “New Hybrid Tetrahydropyrrolo[3,2,1-ij]quinolin-1-ylidene-2-thioxothiazolidin-4-ones as New Inhibitors of Factor Xa and Factor XIa: Design, Synthesis, and In Silico and Experimental Evaluation” (Molecules, 2023).

Key:
factor Xa = target: T1, factor Xa (Homo sapiens, UniProt P00742); experiment: Inhibition of factor Xa, kinetics of hydrolysis of chromogenic substrate S2765; assay type: biochemical; conditions: for inhibition at 30 µM: 30 μM compound, factor Xa 2.5 nmol/L, S2765 200 μmol/L, pH 8.0, read-out: Percent Inhibition at 30 μM, Xa; for IC50: substrate S2765, buffer solution
T1 construct: followed by the addition of factor Xa (final concentration, 2.5 nmol·L^–1)
T1 sequence (P00742 235-488 limits assumed): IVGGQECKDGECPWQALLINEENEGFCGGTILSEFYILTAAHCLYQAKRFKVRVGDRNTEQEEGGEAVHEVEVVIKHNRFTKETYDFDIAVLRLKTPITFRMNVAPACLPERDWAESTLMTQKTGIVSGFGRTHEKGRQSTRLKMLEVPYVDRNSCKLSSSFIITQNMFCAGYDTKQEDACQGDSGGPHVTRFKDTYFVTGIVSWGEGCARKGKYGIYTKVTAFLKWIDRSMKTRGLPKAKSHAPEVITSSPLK
T1 sequence (P00742 41-179 partner limits assumed): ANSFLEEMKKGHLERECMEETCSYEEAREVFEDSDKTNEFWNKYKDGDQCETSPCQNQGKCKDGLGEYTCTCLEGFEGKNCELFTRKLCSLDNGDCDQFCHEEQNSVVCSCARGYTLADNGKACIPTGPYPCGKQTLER
Description: We measured the kinetics of the hydrolysis of the specific substrates S2765 or S2366 by factors Xa and XIa, respectively, in the buffer solution and in the presence of various concentrations of compounds.
(§1) A specific low-molecular-weight chromogenic substrate, S2765 (Z-D-Arg-Gly-Arg-pNA·2HCl), was used in the case of factor Xa, while the substrate S2366 (pyroGlu-Pro-ArgpNA·HCl) (both substrates from Chromogenix, USA) was used for factor XIa.
A buffer containing 140 mM NaCl, 20 mM HEPES, and 0.1% PEG 6000 (pH 8.0) was placed in the wells of a 96-well plate, followed by the addition of factor Xa (final concentration, 2.5 nmol·L^–1) or XIa (final concentration 0.8 nmol·L^–1), the substrate S2765 (final concentration, 200 μmol·L^–1) or S2366 (final concentration, 200 μmol·L^–1), and a solution of the test compound in DMSO (final concentration, 30 μmol·L^–1; the DMSO content in the well was no more than 2%). […] The initial rate of substrate degradation was determined from the initial slope of the 4-nitroaniline-formation curve. The rate of substrate degradation by the enzyme in the presence of the inhibitor was expressed as a percentage relative to the rate of substrate degradation in the absence of the inhibitor. The data obtained were processed using GraphPad Prism and OriginPro 8 software.

factor XIa = factor XIa (Homo sapiens, UniProt P03951); experiment: Inhibition of factor XIa, kinetics of hydrolysis of chromogenic substrate S2366; assay type: biochemical; conditions: for inhibition at 30 µM: 30 μM compound, factor XIa 0.8 nmol/L, S2366 200 μmol/L, pH 8.0, read-out: Percent Inhibition at 30 μM, XIa; for IC50: substrate S2366, buffer solution
factor XIa, sequence (P03951 388-625 limits assumed): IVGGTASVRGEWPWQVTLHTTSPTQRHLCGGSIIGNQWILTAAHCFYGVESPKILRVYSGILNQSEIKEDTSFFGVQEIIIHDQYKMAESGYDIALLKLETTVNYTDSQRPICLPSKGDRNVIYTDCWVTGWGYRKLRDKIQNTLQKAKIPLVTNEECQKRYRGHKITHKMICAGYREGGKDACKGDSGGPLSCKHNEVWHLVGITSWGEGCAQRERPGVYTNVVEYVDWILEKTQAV
factor XIa, sequence (P03951 19-387 partner limits assumed): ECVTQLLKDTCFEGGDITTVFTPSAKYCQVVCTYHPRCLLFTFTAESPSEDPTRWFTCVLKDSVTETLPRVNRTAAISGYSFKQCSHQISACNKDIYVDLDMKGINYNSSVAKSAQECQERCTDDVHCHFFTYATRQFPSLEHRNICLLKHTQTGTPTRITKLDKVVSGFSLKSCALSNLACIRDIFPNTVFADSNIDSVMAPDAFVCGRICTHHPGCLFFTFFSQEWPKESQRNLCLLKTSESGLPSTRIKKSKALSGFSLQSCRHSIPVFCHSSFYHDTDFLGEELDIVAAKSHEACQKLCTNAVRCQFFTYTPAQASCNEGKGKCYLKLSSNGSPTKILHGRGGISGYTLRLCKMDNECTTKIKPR
Description: Compounds 12, 14 and 16 were evaluated for their anticoagulant activity against factors Xa and Xia, and the results are presented in Table 1. For the best Xa and XIa inhibitors, additional measurements were performed to determine the IC50 values. We measured the kinetics of the hydrolysis of the specific substrates S2765 or S2366 by factors Xa and XIa, respectively, in the buffer solution and in the presence of various concentrations of compounds.
as §1
A buffer containing 140 mM NaCl, 20 mM HEPES, and 0.1% PEG 6000 (pH 8.0) was placed in the wells of a 96-well plate, followed by the addition of factor Xa (final concentration, 2.5 nmol·L^–1) or XIa (final concentration 0.8 nmol·L^–1), the substrate S2765 (final concentration, 200 μmol·L^–1) or S2366 (final concentration, 200 μmol·L^–1), and a solution of the test compound in DMSO (final concentration, 30 μmol·L^–1; the DMSO content in the well was no more than 2%). The kinetics of the formation of p-nitroaniline were measured using a THERMOmax Microplate Reader (Molecular Devices Corporation, USA) using the absorption of light with a wavelength of 405 nm. The initial rate of substrate degradation was determined from the initial slope of the 4-nitroaniline-formation curve. The rate of substrate degradation by the enzyme in the presence of the inhibitor was expressed as a percentage relative to the rate of substrate degradation in the absence of the inhibitor. The data obtained were processed using GraphPad Prism and OriginPro 8 software.

Row | inhibition at 30 µM (factor Xa) [%] | IC50 (factor Xa) [µM] | inhibition at 30 µM (factor XIa) [%] | IC50 (factor XIa) [µM] | Structure (SMILES)
1 | 94 | 9.41 ± 0.35 | 22 | – | CC1CC(C)(C)N2C(=O)/C(=C3\SC(=S)NC3=O)c3cccc1c32 (stereo not drawn) [12a, (Z)-2-Thioxo-5-(4,4,6-trimethyl-2-oxo-5,6-dihydro-4H-pyrrolo[3,2,1-ij]quinolin-1(2H)-ylidene)thiazolidin-4-one]
2 | 81 | 3.53 ± 0.08 | 12 | – | CC1CC(C)(C)N2C(=O)/C(=C3\SC(=S)NC3=O)c3cc(I)cc1c32 (stereo not drawn) [12b, (Z)-5-(8-Iodo-4,4,6-trimethyl-2-oxo-5,6-dihydro-4H-pyrrolo[3,2,1-ij]quinolin-1(2H)-ylidene)-2-thioxothiazolidin-4-one]
3 | 58 | – | 72 | – | CC1CC(C)(C)N2C(=O)/C(=C3\SC(=S)NC3=O)c3cc(OC(=O)c4ccccc4)cc1c32 (stereo not drawn) [12c, (Z)-4,4,6-Trimethyl-2-oxo-1-(4-oxo-2-thioxothiazolidin-5-ylidene)-1,2,5,6-tetrahydro-4H-pyrrolo[3,2,1-ij]quinolin-8-yl benzoate]
4 | 63 | 2.35 ± 0.22 | 98 | 3.79 ± 0.03 | COc1ccccc1C(=O)Oc1cc2c3c(c1)C(C)CC(C)(C)N3C(=O)/C2=C1\SC(=S)NC1=O (stereo not drawn) [12d, (Z)-4,4,6-Trimethyl-2-oxo-1-(4-oxo-2-thioxothiazolidin-5-ylidene)-1,2,5,6-tetrahydro-4H-pyrrolo[3,2,1-ij]quinolin-8-yl 2-methoxybenzoate]
5 | 49 | – | 94 | 3.74 ± 0.33 | COc1cc(C(=O)Oc2cc3c4c(c2)C(C)CC(C)(C)N4C(=O)/C3=C2\SC(=S)NC2=O)cc(OC)c1OC (stereo not drawn) [12e, (Z)-4,4,6-Trimethyl-2-oxo-1-(4-oxo-2-thioxothiazolidin-5-ylidene)-1,2,5,6-tetrahydro-4H-pyrrolo[3,2,1-ij]quinolin-8-yl 3,4,5-trimethoxybenzoate]
6 | 18 | – | 5 | – | CCN1C(=O)/C(=C2/C(=O)N3c4c2cc(OC)cc4C(C)CC3(C)C)SC1=S (stereo not drawn) [12f, (Z)-3-Ethyl-5-(8-methoxy-4,4,6-trimethyl-2-oxo-5,6-dihydro-4H-pyrrolo[3,2,1-ij]quinolin-1(2H)-ylidene)-2-thioxothiazolidin-4-one]
7 | 99 | 3.7 ± 0.03 | 98 | 5.03 ± 0.18 | CC1(c2ccccc2)CC(C)(C)N2C(=O)/C(=C3\SC(=S)NC3=O)c3cc(F)cc1c32 (stereo not drawn) [12g, (Z)-5-(8-Fluoro-4,4,6-trimethyl-2-oxo-6-phenyl-5,6-dihydro-4H-pyrrolo[3,2,1-ij]quinolin-1(2H)-ylidene)-2-thioxothiazolidin-4-one]
8 | 73 | 2.28 ± 0.23 | 98 | 3.73 ± 0.03 | CC1(c2ccccc2)CC(C)(C)N2C(=O)/C(=C3\SC(=S)NC3=O)c3cc(Br)cc1c32 (stereo not drawn) [12h, (Z)-5-(8-Bromo-4,4,6-trimethyl-2-oxo-6-phenyl-5,6-dihydro-4H-pyrrolo[3,2,1-ij]quinolin-1(2H)-ylidene)-2-thioxothiazolidin-4-one]
9 | 75 | 3.44 ± 0.06 | 96 | 5.04 ± 0.33 | CC1(c2ccccc2)CC(C)(C)N2C(=O)/C(=C3\SC(=S)NC3=O)c3cc(I)cc1c32 (stereo not drawn) [12i, (Z)-5-(8-Iodo-4,4,6-trimethyl-2-oxo-6-phenyl-5,6-dihydro-4H-pyrrolo[3,2,1-ij]quinolin-1(2H)-ylidene)-2-thioxothiazolidin-4-one]
10 | 89 | – | 77 | – | CCN1C(=O)/C(=C2/C(=O)N3c4c2cccc4C(C)(c2ccccc2)CC3(C)C)SC1=S (stereo not drawn) [12j, (Z)-3-Ethyl-2-thioxo-5-(4,4,6-trimethyl-2-oxo-6-phenyl-5,6-dihydro-4H-pyrrolo[3,2,1-ij]quinolin-1(2H)-ylidene)thiazolidin-4-one]
11 | 99 | 2.85 ± 0.23 | 99 | 5.24 ± 0.29 | CC1(c2ccc(Cl)cc2)CC(C)(C)N2C(=O)/C(=C3\SC(=S)NC3=O)c3cc(F)cc1c32 (stereo not drawn) [12k, (Z)-5-(6-(4-Chlorophenyl)-8-fluoro-4,4,6-trimethyl-2-oxo-5,6-dihydro-4H-pyrrolo[3,2,1-ij]quinolin-1(2H)-ylidene)-2-thioxothiazolidin-4-one]
12 | 78 | 2.87 ± 0.21 | 95 | 4.3 ± 0.06 | CC1(c2ccc(Cl)cc2)CC(C)(C)N2C(=O)/C(=C3\SC(=S)NC3=O)c3cc(I)cc1c32 (stereo not drawn) [12l, (Z)-5-(6-(4-Chlorophenyl)-8-iodo-4,4,6-trimethyl-2-oxo-5,6-dihydro-4H-pyrrolo[3,2,1-ij]quinolin-1(2H)-ylidene)-2-thioxothiazolidin-4-one]
13 | 18 | – | 0 | – | CCN1C(=O)/C(=C2/C(=O)N3c4c2cc(F)cc4C(C)(c2ccc(Cl)cc2)CC3(C)C)SC1=S (stereo not drawn) [12m, (Z)-5-(6-(4-Chlorophenyl)-8-fluoro-4,4,6-trimethyl-2-oxo-5,6-dihydro-4H-pyrrolo[3,2,1-ij]quinolin-1(2H)-ylidene)-3-ethyl-2-thioxothiazolidin-4-one]
14 | 94 | 2.6 ± 0.5 | 91 | 9.41 ± 0.51 | CC1(C)CC2(CCCCC2)N2C(=O)/C(=C3\SC(=S)NC3=O)c3cccc1c32 [12n, (Z)-5-(6′,6′-Dimethyl-2′-oxo-5′,6′-dihydrospiro[cyclohexane-1,4′-pyrrolo[3,2,1-ij]quinolin]-1′(2′H)-ylidene)-2-thioxothiazolidin-4-one]
15 | 48 | – | 15 | – | Cc1cc2c3c(c1)C(C)CC1(CCCCC1)N3C(=O)/C2=C1\SC(=S)NC1=O (stereo not drawn) [12o, (Z)-5-(6′,8′-Dimethyl-2′-oxo-5′,6′-dihydrospiro[cyclohexane-1,4′-pyrrolo[3,2,1-ij]quinolin]-1′(2′H)-ylidene)-2-thioxothiazolidin-4-one]
16 | 67 | 3.03 ± 0.18 | 77 | 12.2 ± 0.5 | CC1CC2(CCCC2)N2C(=O)/C(=C3\SC(=S)NC3=O)c3cc(F)cc1c32 (stereo not drawn) [12p, (Z)-5-(8′-Fluoro-6′-methyl-2′-oxo-5′,6′-dihydrospiro[cyclopentane-1,4′-pyrrolo[3,2,1-ij]quinolin]-1′(2′H)-ylidene)-2-thioxothiazolidin-4-one]
17 | 47 | – | 91 | 4.32 ± 0.06 | CC1CC2(CCCCCC2)N2C(=O)/C(=C3\SC(=S)NC3=O)c3cc(F)cc1c32 (stereo not drawn) [12q, (Z)-5-(8′-Fluoro-6′-methyl-2′-oxo-5′,6′-dihydrospiro[cycloheptane-1,4′-pyrrolo[3,2,1-ij]quinolin]-1′(2′H)-ylidene)-2-thioxothiazolidin-4-one]
18 | 36 | – | 3 | – | C#CCN1C(=O)/C(=C2/C(=O)N3c4c2cc(F)cc4C(C)(c2ccccc2)CC3(C)C)SC1=S (stereo not drawn) [14a, (Z)-5-(8-Fluoro-4,4,6-trimethyl-2-oxo-6-phenyl-5,6-dihydro-4H-pyrrolo[3,2,1-ij]quinolin-1(2H)-ylidene)-3-(prop-2-yn-1-yl)-2-thioxothiazolidin-4-one]
19 | 49 | – | 17 | – | C#CCN1C(=O)/C(=C2/C(=O)N3c4c2cc(F)cc4C(C)(c2ccc(Cl)cc2)CC3(C)C)SC1=S (stereo not drawn) [14b, (Z)-5-(6-(4-Chlorophenyl)-8-fluoro-4,4,6-trimethyl-2-oxo-5,6-dihydro-4H-pyrrolo[3,2,1-ij]quinolin-1(2H)-ylidene)-3-(prop-2-yn-1-yl)-2-thioxothiazolidin-4-one]
20 | 2 | – | 6 | – | CCOc1cc2c3c(c1)C(C)CC(C)(C)N3C(=O)/C2=C1\NC(=S)NC1=O (stereo not drawn) [16a, (Z)-8-Ethoxy-4,4,6-trimethyl-1-(5-oxo-2-thioxoimidazolidin-4-ylidene)-5,6-dihydro-4H-pyrrolo[3,2,1-ij]quinolin-2(1H)-one]
